Assay results reported in patent US20110313156A1 (BOEHRINGER INGELHEIM INTERNATIONAL GMBH, priority 2008, published 2011).

Molecular target: T1, His6-PDK1 (aa 52-556) (Homo sapiens, UniProt O15530)
T1 construct: 15 μL His6-PDK1 (aa 52-556) 3.33 ng/well); host or cells: baculovirus-infected insect cells
T1 sequence (O15530 52-556): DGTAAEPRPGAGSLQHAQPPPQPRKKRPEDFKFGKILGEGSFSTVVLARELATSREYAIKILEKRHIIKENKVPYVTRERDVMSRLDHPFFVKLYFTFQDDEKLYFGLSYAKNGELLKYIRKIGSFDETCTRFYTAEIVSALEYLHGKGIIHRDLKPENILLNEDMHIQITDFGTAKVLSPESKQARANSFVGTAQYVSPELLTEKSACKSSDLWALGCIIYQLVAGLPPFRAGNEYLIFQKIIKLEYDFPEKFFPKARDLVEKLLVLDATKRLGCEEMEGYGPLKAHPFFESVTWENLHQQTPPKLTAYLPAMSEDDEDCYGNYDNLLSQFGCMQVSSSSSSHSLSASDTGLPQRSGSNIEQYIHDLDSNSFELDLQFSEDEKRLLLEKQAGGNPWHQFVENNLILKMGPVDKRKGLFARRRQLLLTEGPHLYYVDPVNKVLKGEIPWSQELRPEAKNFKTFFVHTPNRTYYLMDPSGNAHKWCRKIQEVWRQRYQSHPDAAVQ
Experiment: PDK1 kinase assay III (with Tween 20)
Type: biochemical
Settings: compound at 10 μM; PDK1 kinase assay III (values without asterisk); read-out: % CTL (residual activity of the enzyme relative to DMSO control)
Protocol: Purified enzyme may be obtained for example from the University of Dundee, Scotland.
Another PDK1 assay was developed which by comparison with PDK1 assay 1 additionally contains Tween 20:
The final concentration of Tween 20 is 0.005%.
The reaction is started by adding the ATP solution and the mixture is incubated for 90 min at ambient temperature; at the start of the reaction the dishes are shaken gently. The reaction is stopped by the addition of 50 μL/well of 500 mM phosphoric acid (H3PO4) and incubated for about 20 min at ambient temperature. […] The measured data are evaluated using Graphpad Prism software.
The % CTL values indicate the residual activity of the enzyme after the addition of the inhibitory compound in the solvent DMSO in relation to the enzyme activity in the solvent DMSO without the addition of a compound (control). The majority of the values were determined using the PDK1 kinase assay III described hereinbefore. The values marked with an asterisk (* or**) were determined using the PDK1 kinase assay II described hereinbefore (one asterisk→incubation for 24 h; two asterisks→incubation for 5 min)

Compound	remaining activity at 10 µM [%]
O=C1Nc2cc(/C=C/CNC(=O)c3cc(Cl)nn(Cc4ccc(F)c(F)c4)c3=O)ccc2/C1=C/c1ccc[nH]1 [I-34, 6-chloro-2-(3,4-difluorobenzyl)-3-oxo-N-{(2E)-3-[(3Z)-2-oxo-3-(1H-pyrrol-2-ylmethylidene)-2,3-dihydro-1H-indol-6-yl]prop-2-en-1-yl}-2,3-dihydropyridazine-4-carboxamide]	21.4
Cc1nc(/C=C2\C(=O)Nc3cc(/C=C/CNC(=O)c4cncn(Cc5ccc(F)c(F)c5)c4=O)ccc32)c[nH]1 [I-35, 1-(3,4-difluorobenzyl)-N-[(2E)-3-{(3Z)-3-[(2-methyl-1H-imidazol-4-yl)methylidene]-2-oxo-2,3-dihydro-1H-indol-6-yl}prop-2-en-1-yl]-6-oxo-1,6-dihydropyrimidine-5-carboxamide]	10.7
O=C1Nc2cc(/C=C/CNC(=O)c3cncn(Cc4ccc(F)c(F)c4)c3=O)ccc2/C1=C/c1c[nH]c(-c2cccnc2)n1 [I-36, 1-(3,4-difluorobenzyl)-6-oxo-N-{(2E)-3-[(3Z)-2-oxo-3-{[2-(pyridin-3-yl)-1H-imidazol-4-yl]methylidene}-2,3-dihydro-1H-indol-6-yl]prop-2-en-1-yl}-1,6-dihydropyrimidine-5-carboxamide]	25.4
O=C1Nc2cc(/C=C/CNC(=O)c3cncn(Cc4ccc(F)c(F)c4)c3=O)ccc2/C1=C/c1ncc[nH]1 [I-37, 1-(3,4-difluorobenzyl)-N-{(2E)-3-[(3Z)-3-(1H-imidazol-2-ylmethylidene)-2-oxo-2,3-dihydro-1H-indol-6-yl]prop-2-en-1-yl}-6-oxo-1,6-dihydropyrimidine-5-carboxamide]	16.6
Cc1c[nH]c(/C=C2\C(=O)Nc3cc(/C=C/CNC(=O)c4cncn(Cc5ccc(F)c(F)c5)c4=O)ccc32)n1 [I-38, 1-(3,4-difluorobenzyl)-N-[(2E)-3-{(3Z)-3-[(4-methyl-1H-imidazol-2-yl)methylidene]-2-oxo-2,3-dihydro-1H-indol-6-yl}prop-2-en-1-yl]-6-oxo-1,6-dihydropyrimidine-5-carboxamide]	20.5
Cc1nc[nH]c1/C=C1\C(=O)Nc2cc(/C=C/CNC(=O)c3c(C)n(C)n(Cc4ccccc4)c3=O)ccc21 [I-39, 2-benzyl-1,5-dimethyl-N-[(2E)-3-{(3Z)-3-[(4-methyl-1H-imidazol-5-yl)methylidene]-2-oxo-2,3-dihydro-1H-indol-6-yl}prop-2-en-1-yl]-3-oxo-2,3-dihydro-1H-pyrazole-4-carboxamide]	18.6
Cc1c(C(=O)NC/C=C/c2ccc3c(c2)NC(=O)/C3=C\c2ncc[nH]2)c(=O)n(Cc2ccc(F)c(F)c2)n1C [I-41, 2-(3,4-difluorobenzyl)-N-{(2E)-3-[(3Z)-3-(1H-imidazol-2-ylmethylidene)-2-oxo-2,3-dihydro-1H-indol-6-yl]prop-2-en-1-yl}-1,5-dimethyl-3-oxo-2,3-dihydro-1H-pyrazole-4-carboxamide]	16.6
Cc1c[nH]c(/C=C2\C(=O)Nc3cc(/C=C/CNC(=O)c4c(C)n(C)n(Cc5ccc(F)c(F)c5)c4=O)ccc32)n1 [I-42, 2-(3,4-difluorobenzyl)-1,5-dimethyl-N-[(2E)-3-{(3Z)-3-[(4-methyl-1H-imidazol-2-yl)methylidene]-2-oxo-2,3-dihydro-1H-indol-6-yl}prop-2-en-1-yl]-3-oxo-2,3-dihydro-1H-pyrazole-4-carboxamide]	15.7
Cn1cc(C(=O)NC/C=C/c2ccc3c(c2)NC(=O)/C3=C\c2cnc[nH]2)c(=O)n(Cc2ccc(F)c(F)c2)c1=O [I-43]	20.3
O=C1Nc2cc(C#CCNC(=O)c3cncn(Cc4ccc(F)c(F)c4)c3=O)ccc2/C1=C/c1cnc[nH]1 [I-44, 1-(3,4-difluorobenzyl)-N-{3-[(3Z)-3-(1H-imidazol-5-ylmethylidene)-2-oxo-2,3-dihydro-1H-indol-6-yl]prop-2-yn-1-yl}-6-oxo-1,6-dihydropyrimidine-5-carboxamide]	15.6
O=C1Nc2cc(/C=C/CNC(=O)c3cncn(Cc4ccc(F)c(F)c4)c3=O)cc(F)c2/C1=C/c1cnc[nH]1 [I-46, 1-(3,4-difluorobenzyl)-N-{(2E)-3-[(3Z)-4-fluoro-3-(1H-imidazol-5-ylmethylidene)-2-oxo-2,3-dihydro-1H-indol-6-yl]prop-2-en-1-yl}-6-oxo-1,6-dihydropyrimidine-5-carboxamide]	15.6
Cc1nc[nH]c1/C=C1\C(=O)Nc2cc(/C=C/CNC(=O)c3cncn(Cc4ccc(F)c(F)c4)c3=O)cc(F)c21 [I-47, 1-(3,4-difluorobenzyl)-N-[(2E)-3-{(3Z)-4-fluoro-3-[(4-methyl-1H-imidazol-5-yl)methylidene]-2-oxo-2,3-dihydro-1H-indol-6-yl}prop-2-en-1-yl]-6-oxo-1,6-dihydropyrimidine-5-carboxamide]	17.2
Cc1c[nH]c(/C=C2\C(=O)Nc3cc(/C=C/CNC(=O)c4cncn(Cc5ccc(F)c(F)c5)c4=O)cc(F)c32)n1 [I-48, 1-(3,4-difluorobenzyl)-N-[(2E)-3-{(3Z)-4-fluoro-3-[(4-methyl-1H-imidazol-2-yl)methylidene]-2-oxo-2,3-dihydro-1H-indol-6-yl}prop-2-en-1-yl]-6-oxo-1,6-dihydropyrimidine-5-carboxamide]	23.1
NCc1[nH]cnc1/C=C1\C(=O)Nc2cc(/C=C/CNC(=O)c3cncn(Cc4ccc(F)c(F)c4)c3=O)ccc21 [I-49, N-{(2E)-3-[(3Z)-3-{[5-(aminomethyl)-1H-imidazol-4-yl]methylidene}-2-oxo-2,3-dihydro-1H-indol-6-yl]prop-2-en-1-yl}-1-(3,4-difluorobenzyl)-6-oxo-1,6-dihydropyrimidine-5-carboxamide]	12.6
Cc1c(C(=O)NC/C=C/c2ccc3c(c2)NC(=O)/C3=C\c2nc[nH]c2CN)c(=O)n(Cc2ccc(F)c(F)c2)n1C [I-50, N-{(2E)-3-[(3Z)-3-{[5-(aminomethyl)-1H-imidazol-4-yl]methylidene}-2-oxo-2,3-dihydro-1H-indol-6-yl]prop-2-en-1-yl}-2-(3,4-difluorobenzyl)-1,5-dimethyl-3-oxo-2,3-di-hydro-1H-pyrazole-4-carboxamide]	16.6
Cc1c(C(=O)NCC#Cc2ccc3c(-c4ccc[nH]4)n[nH]c3c2)c(=O)n(Cc2ccc(F)c(F)c2)n1C [II-1, 2-(3,4-difluorobenzyl)-1,5-dimethyl-3-oxo-N-{3-[3-(1H-pyrrol-2-yl)-1H-indazol-6-yl]prop-2-yn-1-yl}-2,3-dihydro-1H-pyrazole-4-carboxamide]	13
O=C(NCC#Cc1ccc2cn[nH]c2c1)c1cncn(Cc2ccc(F)c(F)c2)c1=O [II-2, 1-(3,4-difluorobenzyl)-N-[3-(1H-indazol-6-yl)prop-2-yn-1-yl]-6-oxo-1,6-dihydropyrimidine-5-carboxamide]	12.5
Cc1c(C(=O)NCC#Cc2ccc3cn[nH]c3c2)c(=O)n(Cc2ccc(F)c(F)c2)n1C [II-3, 2-(3,4-difluorobenzyl)-N-[3-(1H-indazol-6-yl)prop-2-yn-1-yl]-1,5-dimethyl-3-oxo-2,3-dihydro-1H-pyrazole-4-carboxamide]	12.4
Cc1c(C(=O)NCC#Cc2ccc3c(-c4ccccc4)n[nH]c3c2)c(=O)n(Cc2ccc(F)c(F)c2)n1C [II-4, 2-(3,4-difluorobenzyl)-1,5-dimethyl-3-oxo-N-[3-(3-phenyl-1H-indazol-6-yl)prop-2-yn-1-yl]-2,3-dihydro-1H-pyrazole-4-carboxamide]	16.9
